Measured values reported in US9636317B2, “Compositions and methods of use of phorbol esters” (priority 2007, dated 2017).
Several values for one entry are separate records, joined by “and”; a condition that tells them apart may be missing. Equal values may be shown once.

Legend:
Type in all cases: in vivo, human
[1] = Third clinical study of HIV+ patients: periphery blood profile; conditions: one value per patient
Method: Each patient in the study received 150 μg of TPA in 200 ml of sterile saline by intravenous infusion over a 1.5 to 2 hour period daily for 60 days for a total administered dose of 9.0 mg. Following completion of the 60 days of TPA therapy, these patients remained under observation for an additional 60 days though the received no further treatment.
CD3, CD4 and CD8 levels in peripheral blood were quantitated prior to starting treatment, and again at 30 and 60 days using flow cytometry and the appropriate antibodies obtained from B.D. Bioscience, San Diego, Calif. Viral load was determined using conventional methods at Kuang Ann men Hospital, Beijing, China. Patients RBC, WBC, platelets and hemoglobin levels were also measured. […]

lymphoma = experiment: Treatment of lymphoma (patient case)
Excerpt: Patient five was diagnosed with a re-occurrence of lymphoma and a mass of 3.5 cm in diameter. […] As of 2011, they have been in remission for three years.

[2] = Second clinical study of HIV+ patients: periphery blood count; conditions: one value per patient
Method: Nine of the patients in Example III were given a second treatment of TPA. Of these nine, seven were asymptomatic at the beginning of the second trial. A tenth patient (patient #2a) who was symptomatic and had not previously been treated with TPA was added to the study. Each patient was administered a weight adjusted dosage of TPA (75 μg/sq m) in 200 ml of sterile saline intravenously over one hour. This dosage was given to each patient once a day for ten consecutive days followed by a rest period of ten days for three cycles and a total of 30 doses of TPA. Patients 5a, 6a, and 8a stopped taking anti-AIDS drugs one month prior to beginning the TPA treatment and beginning again one month after the third cycle. Patients 1-4-a, 7a, and 9a-10a continued taking anti-AIDS drugs throughout the treatment.
Blood samples were taken three days prior to starting treatment, after completing the first 10 day cycle of TPA infusion and again after the last TPA infusion and CD3, CD4, CD8, WBC, RBC, HGB and platelets were measured.

[3] = After first 10-day TPA infusing
[4] = After third 10-day TPA infusing

CCCCCCCCCCCCCC(=O)O[C@@H]1[C@@H](C)[C@@]2(O)[C@@H](C=C(CO)C[C@]3(O)C(=O)C(C)=C[C@@H]23)[C@@H]2C(C)(C)[C@]12OC(C)=O [TPA, 12-O-tetradecanoylphorbol-13-acetate]
PLt ([1]; Fifteen Days After TPA): 1.69e+11 L⁻¹ and 2.19e+11 L⁻¹ and 4.15e+11 L⁻¹ and 1.51e+11 L⁻¹ and 2.08e+11 L⁻¹ and 2.4e+11 L⁻¹ | RBC ([1]; Fifteen Days After TPA): 4.03e+12 L⁻¹ and 3.41e+12 L⁻¹ and 3.65e+12 L⁻¹ and 2.98e+12 L⁻¹ and 3.69e+12 L⁻¹ and 3.88e+12 L⁻¹ | Rb ([1]; Fifteen Days After TPA): 114 g/L and 101 g/L and 142 g/L and 118 g/L and 141 g/L and 140 g/L | WBC ([1]; Fifteen Days After TPA): 4.1 ×10^9/L and 5 ×10^9/L and 8.1 ×10^9/L (2×) and 6.4 ×10^9/L and 9 ×10^9/L | PLt ([1]; Forty Days After TPA): 3.04e+11 L⁻¹ and 1.52e+11 L⁻¹ and 2.62e+11 L⁻¹ and 2.91e+11 L⁻¹ and 1.31e+11 L⁻¹ and 1.49e+11 L⁻¹ | RBC ([1]; Forty Days After TPA): 3.9e+12 L⁻¹ and 4.44e+12 L⁻¹ and 4.13e+12 L⁻¹ and 3.86e+12 L⁻¹ and 3.49e+12 L⁻¹ and 4.14e+12 L⁻¹ | Rb ([1]; Forty Days After TPA): 125 g/L and 109 g/L and 110 g/L and 124 g/L and 116 g/L and 131 g/L | WBC ([1]; Forty Days After TPA): 4.6 ×10^9/L (2×) and 3.9 ×10^9/L (2×) and 6.2 ×10^9/L and 4.9 ×10^9/L | PLt ([1]; Sixty Days After TPA): 2.21e+11 L⁻¹ and 2.27e+11 L⁻¹ and 2.39e+11 L⁻¹ and 2.76e+11 L⁻¹ and 1.21e+11 L⁻¹ and 2.22e+11 L⁻¹ | RBC ([1]; Sixty Days After TPA): 4.55e+12 L⁻¹ and 4.31e+12 L⁻¹ and 4.04e+12 L⁻¹ and 4.1e+12 L⁻¹ and 3.34e+12 L⁻¹ and 4.56e+12 L⁻¹ | Rb ([1]; Sixty Days After TPA): 126 g/L and 96 g/L and 99 g/L (2×) and 123 g/L and 136 g/L | WBC ([1]; Sixty Days After TPA): 8.8e+09 L⁻¹ and 4.4e+09 L⁻¹ and 6.2e+09 L⁻¹ and 5.1e+09 L⁻¹ and 7.7e+09 L⁻¹ and 3.5e+09 L⁻¹ | PLt ([1]; Thirty Days After Stopping TPA): 2.72e+11 L⁻¹ and 1.93e+11 L⁻¹ and 2.78e+11 L⁻¹ and 2.24e+11 L⁻¹ and 1.78e+11 L⁻¹ | RBC ([1]; Thirty Days After Stopping TPA): 4.55e+12 L⁻¹ and 4.4e+12 L⁻¹ and 3.9e+12 L⁻¹ and 4.71e+12 L⁻¹ and 3.42e+12 L⁻¹ | Rb ([1]; Thirty Days After Stopping TPA): 130 g/L and 104 g/L and 110 g/L and 144 g/L and 100 g/L | WBC ([1]; Thirty Days After Stopping TPA): 7.5e+09 L⁻¹ and 6.5e+09 L⁻¹ and 8.4e+09 L⁻¹ and 3.8e+09 L⁻¹ and 4.8e+09 L⁻¹ | PLt ([1]; Thirty Days After TPA): 2.32e+11 L⁻¹ and 2.47e+11 L⁻¹ and 3.45e+11 L⁻¹ and 1.77e+11 L⁻¹ and 2.28e+11 L⁻¹ and 2.75e+11 L⁻¹ | RBC ([1]; Thirty Days After TPA): 4.48e+12 L⁻¹ and 3.83e+12 L⁻¹ and 4.03e+12 L⁻¹ and 3.2e+12 L⁻¹ and 4.32e+12 L⁻¹ and 4.35e+12 L⁻¹ | Rb ([1]; Thirty Days After TPA): 116 g/L and 113 g/L and 145 g/L and 121 g/L and 154 g/L and 148 g/L | WBC ([1]; Thirty Days After TPA): 5.9e+09 L⁻¹ and 5.2e+09 L⁻¹ and 4.3e+09 L⁻¹ and 4e+09 L⁻¹ and 4.5e+09 L⁻¹ and 8.9e+09 L⁻¹ | lymphoma mass (3.5 cm in diameter) (lymphoma; 15 injections of 0.19 mg TPA every other day for 30 days): the mass disappeared | duration of remission (lymphoma; as of 2011): three years | HGB [2, 3]: 88 g/L and 1.38 g/L and 107 g/L and 1.35 g/L and 142 g/L and 143 g/L and 128 g/L and 57 g/L and 92 g/L and 99 g/L | PLt [2, 3]: 2.38e+11 L⁻¹ and 3.38e+11 L⁻¹ and 3.06e+11 L⁻¹ and 3.15e+11 L⁻¹ and 2.56e+11 L⁻¹ and 2.58e+11 L⁻¹ and 2.21e+11 L⁻¹ and 2.14e+11 L⁻¹ and 1.87e+11 L⁻¹ and 3.25e+11 L⁻¹ | RBC [2, 3]: 2.14e+12 L⁻¹ and 3.83e+12 L⁻¹ and 2.92e+12 L⁻¹ and 3.46e+12 L⁻¹ and 3.48e+12 L⁻¹ and 3.76e+12 L⁻¹ and 3.86e+12 L⁻¹ and 1.99e+12 L⁻¹ and 2.58e+12 L⁻¹ and 2.61e+12 L⁻¹ | WBC [2, 3]: 3.7e+09 L⁻¹ and 9.8e+09 L⁻¹ and 3.6e+09 L⁻¹ and 5.7e+09 L⁻¹ and 4.2e+09 L⁻¹ and 6e+09 L⁻¹ and 4.3e+09 L⁻¹ and 2.6e+09 L⁻¹ and 2.9e+09 L⁻¹ and 4.4e+09 L⁻¹ | HGB [2, 4]: 102 g/L and 100 g/L and 140 g/L and 105 g/L and 144 g/L and 154 g/L and 123 g/L and 128 g/L and 67 g/L and 130 g/L | PLt [2, 4]: 182 ×10^9/L and 124 ×10^9/L and 549 ×10^9/L and 105 ×10^9/L and 130 ×10^9/L and 169 ×10^9/L and 293 ×10^9/L and 138 ×10^9/L (2×) and 170 ×10^9/L | RBC [2, 4]: 2.91e+12 L⁻¹ and 2.52e+12 L⁻¹ and 4.54e+12 L⁻¹ and 2.85e+12 L⁻¹ and 3.61e+12 L⁻¹ and 3.66e+12 L⁻¹ and 3.92e+12 L⁻¹ and 4.19e+12 L⁻¹ and 2.33e+12 L⁻¹ and 4.31e+12 L⁻¹ | WBC [2, 4]: 6.1e+09 L⁻¹ and 1.11e+10 L⁻¹ and 1.36e+10 L⁻¹ and 9.2e+09 L⁻¹ and 1.01e+10 L⁻¹ and 6.5e+09 L⁻¹ and 6e+09 L⁻¹ and 6.8e+09 L⁻¹ and 4e+09 L⁻¹ and 7e+09 L⁻¹
